Where two headings read alike, the source gives them in different places.
How the values were obtained:
[1] = test system: β-catenin-TCF-mediated reporter transcription activity in Colo 205 cells; experiment: Colo 205 reporter assay (TCF/LEF luciferase); format: cell-based; conditions: Colo 205 TCF/LEF luciferase reporter, five hours after addition of compound, read-out: TCF reporter Colo205 IC50
Outline: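 Luciferase signal from a TCF/LEF-driven reporter, stably integrated in Colo 205 colon cancer cells, was measured 5 h after compound addition.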

Colo-205 cells = experiment: Calcium flux assay (FLIPR Calcium 5); format: cell-based; conditions: FLIPR Calcium 5, measured over 36 minutes
Experimental: Compounds described herein induced ER stress by causing intracellular calcium flux. Calcium flux was measured in Colo-205 cells using the FLTPR® Calcium 5 Assay Kit according to manufacter's protocol (Molecular Devices, Cat. #R8186) on a FLIPR3 system (Molecular Devices). Calcium flux is measured over 36 minutes. The Colo-205 calcium flux assay data are summarized in Table 47: A<0.6 μM; 0.6 μM≤B<2.0 μM; 2.0 μM≤C<10.0 μM; D≥10.0 μM.

[2] = target: HEK293 membranes over-expressing WFS-1 (Homo sapiens (Human), UniProt O76024); experiment: Radioligand displacement assay (tritiated Compound 136 probe); format: binding; conditions: displacement of tritiated Compound 136
Experimental: Cell pellets were re-suspended in 15 times packed cellular volume in 4° C. hypotonic lysis buffer (10 mM HEPES, pH 7.5 containing 1×Protease inhibitor, 0.5 mM EDTA and 2 mM DTT). Re-suspended cells were homogenized with 6-8 strokes in a dounce homogenizer kept on ice. Lysates were centrifuged at 500×G for 15 minutes at 4° C. without brake to decelerate rotor. Following centrifugation, remove the supernatant to a fresh tube and place on ice (Supernatant 1). Repeat the above steps on the lysed cell pellet using 0.5 the original volume of hypotonic lysis buffer and remove the 500× G supernatant (Supernatant 2) and combine with Supernatant 1. Transfer the combined supernatants to a 45-Ti ultracentrifuge tube and centrifuge at 100,000× G for 30 minutes. Following ultracentrifugation, carefully remove the supernatant and discard. Resuspend the 100,000× G pellet in cold resuspension buffer (10 mM HEPES, pH 7.5, 300 mM NaCl containing 1× Protease inhibitor, 1× EDTA and 2 mM DTT). Centrifuge sample at 500× G for 10 minutes with no brake and remove any cloudy, flocculent material. Resuspend pellet in resuspension buffer to approximately 2 mg/mL of protein concentration for use in radioligand binding assay and immunoblotting.
The binding affinities of compounds were determined by measuring the competitive displacement of a tritiated Compound 136 probe from purified HEK293 membranes over-expressing WFS-1. The data for the radioligand displacement assay are summarized in Table 47: A<0.06 μM; 0.06 μM≤B<0.6 μM; 0.6 μM≤C<3.0 μM; D≥3.0 μM.
The probe Kd was determined by titrating tritiated probe under the standard assay conditions plus and minus excess unlabeled probe and fitting the resulting data to a “One site—Total and nonspecific binding” model in Graphpad Prism, version 6.0, San Diego, CA, US. Initially, 0.25 μl of compound dissolved in DMSO at varying concentrations was dispensed to a 384 well plate. Membrane and probe were both prepared at 2× their final concentration in 1× assay buffer as described above. 25 μL of membrane was added to the wells and incubated for 10 minutes. 25 μL of diluted probe was then added to the wells. The assay was incubated for 90 minutes at room temperature. The entire assay volume was then transferred to Millipore GF/B 384-well plates pretreated with 15 μL 0.5% PEI. The filter plates were washed 3× with 75 μL 25 mM TRIS, ph7.5, 0.1% BSA and then dried overnight. Following addition of 45 μL UltimaGold scintillant, the samples were counted in a Perkin Elmer Topcount. The radioactivity remaining is a measure of bound probe. From the bound probe vs concentration of compound titration curve, the IC50 is determined by fitting the data to a standard 3 parameter IC50 model using either Graphpad Prism, version 6.0, San Diego, CA, US, or using GeneData Analyzer, Basel, Switzerland.

[3] = test system: Colo205-TCF/LEF-Luciferase (Luc) tumor; experiment: In vivo inhibition of TCF/LEF reporter activity in Colo-205 tumors; parameters: concentration or dose not given beside the values; conditions: TCF/LEF luciferase reporter in Colo-205 tumors, nu/nu mice, oral gavage
Experimental: Colo205-TCF/LEF-Luciferase (Luc) tumor cells were expanded in complete DMEM cell culture media [DMEM (Life Technologies, product #11960-051) media supplemented with 10% FBS (Hyclone, catalog #SH30071.03), antimycotic/antibiotic (Life Technologies, product #15240-062), and Glutamax (Life Technologies, product #35050-061)] with 1 ug/ml puromycin. After reaching confluency/high density, the loosely attached cells in media were transferred from the flask to 50 ml conical tubes. Tumor cells adhered to plastic were detached with trypsin and combined with cells in the conical tubes. The tumor cells were triturated, counted, and pelleted by centrifugation. Cell pellets were resuspended in 0.9% injectable saline (6×10^7 cells/ml). A 50 ul volume (3×10^6 cells) was injected subcutaneously in the flanks of 4-6 wk old female nu/nu mice (Charles River Laboratories). Approximately 13-16 days after implantation, tumors between 200-500 mm^3 were selected (based on caliper measurements and applying the formula […]) and randomized into groups of n=4. Mice were dosed by oral gavage with compound dissolved in 1:3:5:1 EtOH:DMSO:PEG-400:H2O at a rate of 10 ml/kg or 1:3:5:1 EtOH:DMSO:PEG-400:H2O alone (Vehicle Control). Tumors were collected from mice euthanized by CO2 inhalation and snap frozen in liquid nitrogen. Tumors were stored in a −80 degrees C. freezer until they were processed.
Tumors were thawed on ice and homogenized in cold Lysis Buffer (20 mM Tris-HCl (pH 7.5), 150 mM NaCl, 1 mM Na2EDTA, 1 mM EGTA, 1% Triton, 2.5 mM sodium pyrophosphate, 1 mM beta-glycerophosphate, 1 mM Na3VO4, 1 μg/ml leupeptin, 0.05% SDS) using a closed tissue grinder system (Fisher Scientific, Cat #02-542-09) on ice according to manufacturer's instructions. For 100 mg of tumor, 500 uL of Lysis Buffer was used. Tumor lysate was transferred to a pre-chilled microcentrifuge tube and centrifuged at 10,000×g for 10 minutes at 4 degrees C. Supernatant was transferred to a new pre-chilled microcentrifuge tube and was used immediately for analysis of protein content and luciferase activity.
Protein content of tumor lysate supernatant was determined using the BCA assay (Life Technologies Cat #23225). Luciferase activity of tumor lysate supernatant was determined by addition of Steady-Glo luminescence reagent (Promega, Cat #E2550) according to manufacturer's instructions and measurement on a Pherastar luminescence plate reader (BMG Labtech). Luciferase activity was normalized to protein content.

Plk1 = Plk1 (Homo sapiens (Human), UniProt P53350); experiment: PLK1 inhibition assay (radioactive-phosphate incorporation); format: biochemical; conditions: Ki(app), read-out: PLK1 - 33P.ENZ - CB 10 Ki
Experimental: Compounds were screened for their ability to inhibit Plk1 using a radioactive-phosphate incorporation assay. Assays were carried out in a mixture of 25 mM HEPES (pH 7.5), 10 mM MgCl2, 25 mM NaCl, and 2 mM DTT. Final substrate concentrations were 20 μM [γ-33P]ATP (35mCi 33P ATP/mmol ATP, Perkin Elmer/Sigma Chemicals) and 9 uM Sam68 protein. Assays were carried out at room temperature in the presence of 15 nM Plk1. An assay stock buffer solution was prepared containing all of the reagents listed above, with the exception of ATP and the test compound of interest. 0.75 μL of DMSO stock containing serial dilutions of the test compound (typically starting from a final concentration of 10 μM with 2-fold serial dilutions—final DMSO concentration 1.5%) was placed in a 384 well plate followed by addition of 25 μL [γ-33P]ATP (final concentration 20 μM). The reaction was initiated by addition of 25 μL of the assay stock buffer solution.
The reaction was stopped after 45 minutes by the addition of 25 μL 30% trichloroacetic acid (TCA) containing 10 mM cold ATP. The entire quenched reaction was transferred to a 384-well glass fiber filter plate (Millipore, Cat no. MZFBNOW50). The plate was washed with 3×5% TCA. After drying, 40 μL of Ultima Gold liquid scintillation cocktail (Perkin Elmer) was added to the well prior to scintillation counting in a PerkinElmer TopCount.
After removing mean background values for all of the data points, Ki(app) data were calculated from non-linear regression analysis of the initial rate data using the Prism software package (GraphPad Prism, GraphPad Software, San Diego California, USA).

HepG2 XBP1(u)-Luc cells = experiment: HepG2 XBP1 reporter assay; format: cell-based; conditions: 6 h
Experimental: HepG2 hepatoma cells were transduced with a retrovirus encoding the cDNA for unspliced (u) XBP1, which contains a non-processed intron, fused to the cDNA for firefly luciferase. Upon induction of ER stress, the non-processed intron of XBP1(u) is spliced out by active IRE1alpha endonuclease. The resulting spliced (s) XBP1 is now in frame with luciferase which causes the production of active luciferase protein, resulting in bioluminescence
HepG2 XBP1(u)-Luc cells were plated […] Cultured cells with a stably transfected reporter construct were plated at approximately 30,000 cells per well into 96 well multi-well plates for twenty four hours. The testing compounds were then added to the wells in 3-fold serial dilutions using a twenty seven micromolar top concentration. A series of control wells for each cell type received only compound solvent. Six hours after the addition of compound, reporter activity for luciferase was assayed, by addition of the SteadyGlo luminescence reagent (Promega). The reporter luminescence activity was measured using Pherastar plate reader (BMG Labtech). Readings was normalized to DMSO only treated cells, and normalized activities were then used in the IC50 calculations. The HepG2 XBP1 reporter assay data are summarized in Table 47: A<0.6 μM; 0.6 μM≤B<2.0 μM; 2.0 μM≤C<10.0 μM; D≥10.0 μM.

Sequence of HEK293 membranes over-expressing WFS-1 (O76024 whole entry): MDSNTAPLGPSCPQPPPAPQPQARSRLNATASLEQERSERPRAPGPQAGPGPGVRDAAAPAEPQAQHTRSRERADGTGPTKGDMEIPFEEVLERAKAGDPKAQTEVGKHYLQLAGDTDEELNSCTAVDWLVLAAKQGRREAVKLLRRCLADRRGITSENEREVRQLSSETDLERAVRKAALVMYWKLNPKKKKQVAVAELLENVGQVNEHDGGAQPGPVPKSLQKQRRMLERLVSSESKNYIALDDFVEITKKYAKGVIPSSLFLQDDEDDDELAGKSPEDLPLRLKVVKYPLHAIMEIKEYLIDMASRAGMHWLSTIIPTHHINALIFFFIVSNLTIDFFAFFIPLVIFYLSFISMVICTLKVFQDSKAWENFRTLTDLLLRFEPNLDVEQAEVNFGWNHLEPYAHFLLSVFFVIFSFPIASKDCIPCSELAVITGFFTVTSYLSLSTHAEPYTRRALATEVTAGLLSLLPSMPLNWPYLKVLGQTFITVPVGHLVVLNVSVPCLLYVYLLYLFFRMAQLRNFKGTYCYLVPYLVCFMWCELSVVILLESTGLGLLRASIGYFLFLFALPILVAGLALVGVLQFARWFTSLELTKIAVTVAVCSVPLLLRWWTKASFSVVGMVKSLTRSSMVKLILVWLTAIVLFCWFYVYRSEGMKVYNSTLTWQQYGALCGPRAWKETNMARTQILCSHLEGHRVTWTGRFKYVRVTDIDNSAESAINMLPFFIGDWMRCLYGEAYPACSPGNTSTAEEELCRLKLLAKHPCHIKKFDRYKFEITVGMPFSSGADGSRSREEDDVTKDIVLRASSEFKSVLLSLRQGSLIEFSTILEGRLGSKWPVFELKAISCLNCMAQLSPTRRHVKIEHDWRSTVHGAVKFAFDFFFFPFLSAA
Sequence of Plk1 (P53350 whole entry, species assumed): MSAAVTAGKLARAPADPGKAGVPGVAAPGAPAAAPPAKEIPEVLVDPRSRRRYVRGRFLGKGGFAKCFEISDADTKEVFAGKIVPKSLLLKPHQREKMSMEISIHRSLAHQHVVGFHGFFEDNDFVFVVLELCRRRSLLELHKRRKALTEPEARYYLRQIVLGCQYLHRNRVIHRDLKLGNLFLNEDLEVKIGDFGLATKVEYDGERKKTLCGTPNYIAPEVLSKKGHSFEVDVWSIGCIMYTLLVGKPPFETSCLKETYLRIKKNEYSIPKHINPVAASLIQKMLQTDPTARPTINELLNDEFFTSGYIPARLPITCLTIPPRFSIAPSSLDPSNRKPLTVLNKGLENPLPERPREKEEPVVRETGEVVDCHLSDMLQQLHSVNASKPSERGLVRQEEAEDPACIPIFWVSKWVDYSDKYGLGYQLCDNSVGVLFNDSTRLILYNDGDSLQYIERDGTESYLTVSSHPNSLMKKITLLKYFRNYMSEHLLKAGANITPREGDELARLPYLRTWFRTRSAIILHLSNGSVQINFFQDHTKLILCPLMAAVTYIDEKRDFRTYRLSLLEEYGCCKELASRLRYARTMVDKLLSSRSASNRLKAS

What does the source list for `Cc1nc(N[C@H]2C[C@@H](COc3ccc(C(F)(F)F)nc3)C2)nc2c1NC(=O)[C@H](C(C)C)N2C` (relative stereo) [Compound 551, (S)-7-isopropyl-4,8-dimethyl-2-((cis-3-(((6-(trifluoromethyl)pyridin-3-yl)oxy)methyl)cyclobutyl)amino)-7,8-dihydropteridin-6(511)-one]?
IC50 [1]: < 300 nM; EC50 (Colo-205 cells): < 600 nM; IC50 [2]: < 60 nM; Percent Remaining Activity at 8 hrs after Dosing [3]: 20%

`CC[C@@]1(C)C(=O)N(C)c2cnc(NCc3cnn(Cc4ccc(F)cc4)c3)nc2N1C` [Compound 2, (7S)-7-ethyl-2-(((1-(4-fluorobenzyl)-1H-pyrazol-4-yl)methyl)amino)-5,7,8-trimethyl-7,8-dihydropteridin-6(5H)-one] was tested. Which Ki (Plk1) did it give?
Its Ki is greater than 4 µM.

How did the Ki (Plk1) turn out when `CC[C@]1(C)C(=O)N(C)c2cnc(NCc3cnn(Cc4ccc(F)cc4)c3)nc2N1C` [Compound 3, (7R)-7-ethyl-2-(((1-(4-fluorobenzyl)-1H-pyrazol-4-yl)methyl)amino)-5,7,8-trimethyl-7,8-dihydropteridin-6(5H)-one] was run?
Its Ki is greater than 4 µM.

What about the IC50 ([1]; Homo sapiens, COLO 205, 5 h) of the same compound?
Its IC50 is less than 300 nM.

For `Cc1nc(NCc2cnn(CC3CCC3)c2)nc2c1NC(=O)[C@H](C)N2C` [Compound 5, (7S)-2-(((1-(cyclobutylmethyl)-1H-pyrazol-4-yl)methyl)amino)-4,7,8-trimethyl-7,8-dihydropteridin-6(5H)-one], which Ki (Plk1) is on record?
Its Ki is greater than 4 µM.

And the IC50 ([1]; Homo sapiens, COLO 205, 5 h)?
Its IC50 is 300 to 1000 nM.

`CC[C@H]1C(=O)N(C)c2cnc(NCc3cnn(Cc4cc(F)c(F)c(F)c4)c3)nc2N1C` [Compound 15, (7S)-7-Ethyl-5,8-dimethyl-2-(((1-(3,4,5-trifluorobenzyl)-1H-pyrazol-4-yl)methyl)amino)-7,8-dihydropteridin-6(5H)-one] was tested. Which Ki (Plk1) did it give?
The Ki was greater than 4 µM.

And the IC50 ([1]; Homo sapiens, COLO 205, 5 h)?
Its IC50 is less than 300 nM.

How did the IC50 ([1]; Homo sapiens, COLO 205, 5 h) turn out when `Cc1nc(N[C@H]2C[C@H](Oc3cc(F)c(F)cc3F)C2)nc2c1NC(=O)[C@H](C)N2C` [Compound 292, (7S)-4,7,8-trimethyl-2-((trans 3-(2,4,5-trifluorophenoxy)cyclobutyl)amino)-7,8-dihydropteridin-6(5H)-one] was run?
Its IC50 is less than 300 nM.

And the IC50 (HepG2 XBP1(u)-Luc cells; Homo sapiens)?
The IC50 was less than 600 nM.

And the EC50 (Colo-205 cells; Homo sapiens, COLO 205, 0.6 h)?
Its EC50 is less than 600 nM.

What about the IC50 [2] of the same compound?
The IC50 was less than 60 nM.

What does the source list for `CO[C@H](C)[C@H]1C(=O)Nc2c(C)nc(N[C@H]3C[C@@H](COc4ccc(C(F)(F)F)nc4)C3)nc2N1C` [Compound 643, (S)-7-((R)—1-methoxyethyl)-4,8-dimethyl-2-((cis-3-(((6-(trifluoromethyl)pyridin-3-yl)oxy)methyl)cyclobutyl)amino)-7,8-dihydropteridin-6(5H)-one]?
IC50 ([1]; Homo sapiens, COLO 205, 5 h): < 300 nM; EC50 (Colo-205 cells; Homo sapiens, COLO 205, 0.6 h): < 600 nM; IC50 [2]: < 60 nM; Percent Remaining Activity at 8 hrs after Dosing [3]: 22%

`CC[C@H]1C(=O)Nc2c(C)nc(NCc3cnn(C4CC(F)(F)C4)c3)nc2N1C` [Compound 795, (S)-2-(((1-(3,3-difluorocyclobutyl)-1H-pyrazol-4-yl)methyl)amino)-7-ethyl-4,8-dimethyl-7,8-dihydropteridin-6(5H)-one] was tested. Which IC50 ([1]; Homo sapiens, COLO 205, 5 h) did it give?
The IC50 was less than 300 nM.

And the IC50 (HepG2 XBP1(u)-Luc cells; Homo sapiens)?
Its IC50 is less than 600 nM.

What about the EC50 (Colo-205 cells; Homo sapiens, COLO 205, 0.6 h) of the same compound?
The EC50 was less than 600 nM.

And the IC50 [2]?
The IC50 was 60 to 600 nM.

How did the IC50 [1] turn out when `Cc1nc(N[C@H]2C[C@@H](COc3cnc(C(F)(F)F)nc3)C2)nc2c1NC(=O)[C@H](C(C)C)N2C` [Compound 1417, (S)-7-isopropyl-4,8-dimethyl-2-(((1s,3R)-3-(((2-(trifluoromethyl)pyrimidin-5-yl)oxy)methyl)cyclobutyl)amino)-7,8-dihydropteridin-6(5H)-one] was run?
Its IC50 is less than 300 nM.

What about the IC50 (HepG2 XBP1(u)-Luc cells) of the same compound?
Its IC50 is less than 600 nM.

What about the EC50 (Colo-205 cells) of the same compound?
The EC50 was less than 600 nM.

And the IC50 [2]?
The IC50 was 60 to 600 nM.
